This note sets out measurements from patent publication US11685744B2, “CDK inhibitors and their use as pharmaceuticals” (Prelude Therapeutics, Incorporated, priority 2020, dated 2023).

In one test the target is CDK4/Cyclin D1 (Homo sapiens (Human), UniProt P11802). Description: CDK4/CyclinD1 enzymatic activity assay (TR-FRET). In kind it is biochemical. Particulars: ATP 2 mM, read-out: CDK4_D1 IC50. As for the experimental part: CDK4/CyclinD1 Enzymatic Activity Assay
The inhibitory activity of compounds was evaluated in vitro using TR-FRET assay with white 384-well low volume microplate (Greiner Bio-One). CDK4/Cyclin D1 catalyzed phosphorylation of peptide in the presence and absence of compounds was measured. IC50 determination. Recombinant protein complex CDK4/Cyclin D1, expressed from insect cell, was purchased from ProQinase. Testing compounds were dissolved in DMSO at 0.1 mM and tested in 9-dose IC50 mode. The reaction mixture was prepared by mixing CDK4/CyclinD1 (1 nM final), ULight-4E-BP1 (100 nM final, Perkinelmer, TRF0128-D), and ATP (2 mM final) in assay buffer (20 mM of HEPES pH 7.4, 1 mM of EGTA, 0.05% BSA, 0.005% Tween 20, and 1 mM TCEP). The compound of interest in DMSO was added to each well in 3-fold serial dilution by dispenser (TECAN D300E). After 20 minutes preincubation at room temperature, MgCl2 (10 mM final) was added to initiate the reaction. Following a 60 minutes incubation at 37° C., the reaction was stopped by addition of 2 μL of quenching buffer consisting of Lance detection buffer (Perkinelmer CR97-100C), 2 nM LANCE Ultra Europium-anti-P-4E-BP1 (Perkinelmer, TRF0216-D), 10 mM EDTA, and incubate at room temperature for additional 60 minutes in dark. The reaction signal was measured by Envision multimode plate reader (PerkinElmer, 2102-0010). IC50 values were determined by fitting the data to the standard 4 parameters with Hill Slope using GraphPad Prism software.

Test [1] concerns MCF7 adenocarcinoma cell line. Kind of test: Cell proliferation studies in MCF7 cells (ATP-Lite, 10 days). In kind it is cell-based. Particulars: Homo sapiens, 240 h, read-out: PROLIFERATION_CTG_MCF7 IC50. Here is the method:
Cell Proliferation Studies in MCF7 Cells
Cell proliferation studies were conducted in MCF7 adenocarcinoma cell line. Cells were maintained in DMEM (Coming, Catalog #: 10-013-CV) supplemented with 10% v/v FBS (Gibco, Catalog #: 26140-079), 1% v/v Penicillin Streptomycin (Gibco, Catalog #15140-122) Cells were seeded in 384-well plates at a density of 100 or 200 cells/well. Compounds dissolved in DMSO were plated in quadruplicate using a digital dispenser (D300E, Tecan) and tested on a 9-point 3-fold serial dilution. Cells were incubated for 10 days in a 37° C. active humidified incubator at 5% CO2. A media exchange and second compound addition were performed on day 5. Cell viability was measured using the ATP-Lite 1-Step Luminescence reagent (Perkin Elmer, Catalog #: 6016731) as per manufacturer's instructions. Luminescence signal was measured with a multimode plate reader (Envision 2105, Perkin Elmer). Raw data files were imported to Dotmatics Screening Ultra for IC50 analysis. Luminescence values were normalized to both background and DMSO controls to obtain a percentage of viable cells relative to DMSO vehicle control.

Chain of CDK4/Cyclin D1 (P11802 whole entry): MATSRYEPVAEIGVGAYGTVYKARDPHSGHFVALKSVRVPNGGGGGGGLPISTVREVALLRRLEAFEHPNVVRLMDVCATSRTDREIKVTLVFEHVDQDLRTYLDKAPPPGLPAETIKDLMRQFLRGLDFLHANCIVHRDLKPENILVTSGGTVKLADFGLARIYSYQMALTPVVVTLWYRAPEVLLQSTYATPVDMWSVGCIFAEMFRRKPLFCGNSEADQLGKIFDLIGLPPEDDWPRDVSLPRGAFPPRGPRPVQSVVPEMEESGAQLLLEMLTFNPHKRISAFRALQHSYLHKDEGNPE
Chain of CDK4/Cyclin D1 (P24385 whole entry partner): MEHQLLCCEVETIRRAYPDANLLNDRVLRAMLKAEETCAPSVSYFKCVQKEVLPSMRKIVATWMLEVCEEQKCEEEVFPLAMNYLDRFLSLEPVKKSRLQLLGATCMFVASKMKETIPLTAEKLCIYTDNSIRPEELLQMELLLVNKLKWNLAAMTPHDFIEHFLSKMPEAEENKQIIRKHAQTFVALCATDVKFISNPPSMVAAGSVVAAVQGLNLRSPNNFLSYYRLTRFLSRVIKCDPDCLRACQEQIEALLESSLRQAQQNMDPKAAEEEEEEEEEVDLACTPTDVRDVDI

Turning to `CCN1CCC(c2ccc(Nc3ncc(F)c(-c4sc5c(nc(C)n5C5CCCC5)c4C)n3)nc2)CC1` [Example 5, 4-(3-Cyclopentyl-2,6-dimethyl-3H-thieno[2,3-d]imidazol-5-yl)-N-(5-(1-ethylpiperidin-4-yl)pyridin-2-yl)-5-fluoro-pyrimidin-2-amine], the IC50 (at CDK4/Cyclin D1; in test [1]) was 20 to 200 nM in each case.

On to `CCN1CCC(c2ccc(Nc3ncc(F)c(-c4sc5c(C6CCCC6)ccnc5c4Cl)n3)nc2)CC1` [Example 20, 4-(3-Chloro-7-cyclopentylthieno[3,2-b]pyridin-2-yl)-N-[5-(1-ethylpiperidin-4-yl)pyridin-2-yl]-5-fluoropyrimidin-2-amine], for which the IC50 is ≤ 20 nM at CDK4/Cyclin D1 and 20 to 200 nM in test [1].

With `Cc1c(-c2nc(Nc3ccc(C4CCN(C)CC4)cn3)ncc2F)sc2c1nc(C)n2C1CCCC1` [Example 6, 4-(3-Cyclopentyl-2,6-dimethyl-3H-thieno[2,3-d]imidazol-5-yl)-5-fluoro-N-(5-(1-methylpiperidin-4-yl)pyridin-2-yl)pyrimidin-2-amine], the figures for the IC50 (on CDK4/Cyclin D1; in test [1]) were ≤ 20 nM and 20 to 200 nM, respectively.

Turning to `CCN1CCN(c2ccc(Nc3ncc(F)c(-c4cc5nccc(C(C)C)c5s4)n3)nc2)CC1` [Example 14, N-[5-(4-Ethylpiperazin-1-yl)pyridin-2-yl]-5-fluoro-4-(7-propan-2-ylthieno[3,2-b]pyridin-2-yl)pyrimidin-2-amine], the IC50 on CDK4/Cyclin D1 is ≤ 20 nM; in test [1] it was 20 to 200 nM.

For `CC(C)c1cn(C)c(=O)c2cc(-c3ccnc(Nc4ccc(C5CCN(C)CC5)cn4)n3)sc12` [Example 96, 7-Isopropyl-5-methyl-2-(2-((5-(1-methylpiperidin-4-yl)pyridine-2-yl)amino)pyrimidin-4-yl)thieno[3,2-c]pyridin-4(5H)-one], the figures for the IC50 (on CDK4/Cyclin D1; in test [1]) were 20 to 200 nM and 200 to 2000 nM, respectively.

For `CCN1CCN(c2ccc(Nc3ncc(F)c(-c4cc5nccc(C(C)(O)C(F)(F)F)c5s4)n3)nc2)CC1` (stereo not drawn) [Example 29, 2-[2-[2-[[5-(4-Ethylpiperazin-1-yl)pyridin-2-yl]amino]-5-fluoropyrimidin-4-yl]thieno[3,2-b]pyridin-7-yl]-1,1,1-trifluoropropan-2-ol], the IC50 (on CDK4/Cyclin D1; in test [1]) was 20 to 200 nM throughout.

In the case of `Cc1c(-c2nc(Nc3ccc(C4CCN(C)CC4)cn3)ncc2F)sc2c(C3CCCC3)ncnc12` [Example 49, 4-(4-Cyclopentyl-7-methylthieno[3,2-d]pyrimidin-6-yl)-5-fluoro-N-(5-(1-methylpiperidin-4-yl)pyridin-2-yl)pyrimidin-2-amine], the IC50 (on CDK4/Cyclin D1; in test [1]) was 200 to 2000 nM each time.

As to `Cc1nc2cc(-c3nc(Nc4ccc(N5CCN(C)CC5)cn4)ncc3F)sc2n1C1CCCC1` [Example 13, 4-(3-Cyclopentyl-2-methyl-3H-thieno[2,3-d]imidazol-5-yl)-5-fluoro-N-(5-(4-methylpiperazin-1-yl)pyridin-2-yl)pyrimidin-2-amine], the IC50 at CDK4/Cyclin D1 is ≤ 20 nM; in test [1] it was 20 to 200 nM.

`Cc1c(-c2nc(Nc3ccc(N4CCN(C)CC4)cn3)ncc2F)sc2c(C3CCCC3)ccnc12` [Example 28, 4-(7-Cyclopentyl-3-methylthieno[3,2-b]pyridin-2-yl)-5-fluoro-N-(5-(4-methylpiperazin-1-yl)pyridin-2-yl)pyrimidin-2-amine]: the results for the IC50 (at CDK4/Cyclin D1; in test [1]) were 20 to 200 nM and 200 to 2000 nM, respectively.

For the compound `CCN1CCN(c2ccc(Nc3ncc(F)c(-c4sc5c(C6CCCC6)ccnc5c4Cl)n3)nc2)CC1` [Example 16, 4-(3-Chloro-7-cyclopentylthieno[3,2-b]pyridin-2-yl)-N-[5-(4-ethylpiperazin-1-yl)pyridin-2-yl]-5-fluoropyrimidin-2-amine], the IC50 at CDK4/Cyclin D1 is ≤ 20 nM; in test [1], 20 to 200 nM.

As to `CCN1CC2(C1)CN(c1ccc(Nc3ncc(F)c(-c4sc5c(C(C)C)nn(C)c(=O)c5c4C)n3)nc1)C2` [Example 63, 2-(2-((5-(6-Ethyl-2,6-diazaspiro[3.3]heptan-2-yl)pyridin-2-yl)amino)-5-fluoropyrimidin-4-yl)-7-isopropyl-3,5-dimethylthieno[2,3-d]pyridazin-4(5H)-one], the IC50 lay within 20 to 200 nM at CDK4/Cyclin D1 and 200 to 2000 nM in test [1].

Regarding `Cc1c(-c2nc(Nc3ccc(N4CCN(C)CC4)cn3)ncc2F)sc2c1nc(C)n2C1CCCC1` [Example 7, 4-(3-Cyclopentyl-2,6-dimethyl-3H-thieno[2,3-d]imidazol-5-yl)-5-fluoro-N-(5-(4-methyl-piperazin-1-yl)pyridin-2-yl)pyrimidin-2-amine], the IC50 at CDK4/Cyclin D1 is ≤ 20 nM; in test [1], 20 to 200 nM.

Take `Cc1c(-c2nc(Nc3ccc(N4CCN5CCC4CC5)cn3)ncc2F)sc2c(C(C)C)cn(C)c(=O)c12` [Example 83, 2-(2-((5-(1,4-Diazabicyclo[3,2.2]nonan-4-yl)pyridin-2-yl)amino)-5-fluoropyrimidin-4-yl)-7-isopropyl-3,5-dimethylthieno[3,2-c]pyridin-4(5H)-one]: the values for the IC50 (at CDK4/Cyclin D1; in test [1]) were ≤ 20 nM and 20 to 200 nM, respectively.

Turning to `Cc1c(-c2nc(Nc3ccc(N4CCC(F)(F)C4)cn3)ncc2F)sc2c1nc(C)n2C1CCCC1` [Example 11, 4-(3-Cyclopentyl-2,6-dimethyl-3H-thieno[2,3-d]imidazol-5-yl)-N-(5-(3,3-difluoropyrrolidin-1-yl)pyridin-2-yl)-5-fluoro-pyrimidin-2-amine], the IC50 lay in the range of 20 to 200 nM on CDK4/Cyclin D1 and 200 to 2000 nM in test [1].

On to `CCN1CC2(C1)CN(c1ccc(Nc3ncc(F)c(-c4sc5c(nc(N(C)C)n5C(C)C)c4C)n3)nc1)C2` [Example 111, 5-(2-((5-(6-Ethyl-2,6-diazaspiro[3.3]heptan-2-yl)pyridin-2-yl)amino)-5-fluoropyrimidin-4-yl)-3-isopropyl-N,N,6-trimethyl-3H-thieno[2,3-d]imidazol-2-amine], for which the IC50 (at CDK4/Cyclin D1; in test [1]) was 20 to 200 nM in each case.

With `Fc1cnc(Nc2ccc(N3CCOCC3)cn2)nc1-c1cc2c(C3CCCC3)ccnc2s1` [Example 42, 4-(4-Cyclopentylthieno[2,3-b]pyridin-2-yl)-5-fluoro-N-(5-morpholin-4-ylpyridin-2-yl)pyrimidin-2-amine], the figures for the IC50 (at CDK4/Cyclin D1; in test [1]) were 200 to 2000 nM and > 2000 nM, respectively.

With `CCN1CC2(C1)CN(c1ccc(Nc3ncc(F)c(-c4cc5nccc(C(C)(O)C(F)(F)F)c5s4)n3)nc1)C2` (stereo not drawn) [Example 18, 2-[2-[2-[[5-(6-Ethyl-2,6-diazaspiro[3.3]heptan-2-yl)pyridin-2-yl]amino]-5-fluoropyrimidin-4-yl]thieno[3,2-b]pyridin-7-yl]-1,1,1-trifluoropropan-2-ol], the IC50 (at CDK4/Cyclin D1; in test [1]) was 20 to 200 nM each time.

On to `COC1CCN(c2ccc(Nc3ncc(F)c(-c4cc5nccc(C6CCCC6)c5s4)n3)nc2)CC1` [Example 39, 4-(7-Cyclopentylthieno[3,2-b]pyridin-2-yl)-5-fluoro-N-[5-(4-methoxypiperidin-1-yl)pyridin-2-yl]pyrimidin-2-amine], for which the IC50 on CDK4/Cyclin D1 was 20 to 200 nM; in test [1], 200 to 2000 nM.

For the compound `CCN1CCN(Cc2ccc(Nc3ncc(F)c(-c4cc5nccc(C6CCCC6)c5s4)n3)nc2)CC1` [Example 33, 4-(7-Cyclopentylthieno[3,2-b]pyridin-2-yl)-N-[5-[(4-ethylpiperazin-1-yl)methyl]pyridin-2-yl]-5-fluoropyrimidin-2-amine], the IC50 at CDK4/Cyclin D1 was ≤ 20 nM; in test [1], 200 to 2000 nM.

Turning to `Cc1c(-c2nc(Nc3ccc(C4CC[C@H]5CN(C)C(=O)CN45)cn3)ncc2F)sc2c1nc(C)n2C(C)C` (single isomer, unassigned) [Example 118], the values for the IC50 (at CDK4/Cyclin D1; in test [1]) were ≤ 20 nM and 200 to 2000 nM, respectively.

On to `Cc1c(-c2nc(Nc3ccc(C4CC[N+](C)([O-])CC4)cn3)ncc2F)sc2c(C(C)C)cn(C)c(=O)c12` (stereo not drawn) [Example 98, 4-(6-((5-Fluoro-4-(7-isopropyl-3,5-dimethyl-4-oxo-4,5-dihydrothieno[3,2-c]pyridin-2-yl)pyrimidin-2-yl)amino)pyridin-3-yl)-1-methylpiperidine 1-oxide], for which the values for the IC50 (at CDK4/Cyclin D1; in test [1]) were ≤ 20 nM and 20 to 200 nM, respectively.
